Assay results from patent US20250188123A1, “PROTEASE INHIBITORS” (Regents of the University of Minnesota, priority 2022, published 2025).

Target: T1, Human recombinant Casp6 (Homo sapiens, UniProt P55212)
T1 construct: purchased BioVision (Milpitas/CA, USA)
T1 sequence (P55212 24-293): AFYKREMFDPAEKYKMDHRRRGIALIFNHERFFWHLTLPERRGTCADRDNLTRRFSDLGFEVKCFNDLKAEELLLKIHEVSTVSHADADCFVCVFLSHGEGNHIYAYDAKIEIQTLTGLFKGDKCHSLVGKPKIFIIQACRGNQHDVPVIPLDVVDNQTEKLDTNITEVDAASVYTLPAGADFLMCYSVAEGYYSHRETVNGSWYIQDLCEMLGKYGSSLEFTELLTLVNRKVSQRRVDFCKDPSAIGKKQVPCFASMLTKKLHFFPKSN
Assay: In vitro caspase panel assay, Casp6
Assay type: biochemical
Conditions: Casp2 over Casp6, caspase panel
Text: Human recombinant Casp1, 6, 7, and 9 were purchased from BioVision (Milpitas/CA, USA). AFC fluorogenic substrates and control peptides (AcYVAD-CHO, AcVDVAD-CHO, AcDEVD-CHO, AcVEID-CHO, and AcLEHD-CHO) were purchased from Bachem (Torrance/CA, USA). The pET23b vector encoding human caspase-3 was a gift of Dr. Michelle Arkin at University of California, San Francisco. Expression and purification of Casp3 was guided by previously described protocols (Denault J-B, Salvesen G S., Current Protocols in Protein Science, 2002, 30(1), 21.13. 1-21.13. 15). Briefly, the plasmid was transformed into E. coli Rosetta 2 pLyss DE3 cells that were cultured at 1 L scale in shake flasks. […] The typical yield for the expression, isolation, and purification was approximately 3 mg/L. The DNA encoding human caspase-2 (hCASP2, amino acids 170-452, free of the N-terminal caspase activation and recruitment domain) open reading frame (ORF) was amplified via polymerase chain reaction (PCR) from full-length hCASP2 cDNA (Origene, Rockville, MD; Cat #SC321316) using following primers: forward, 5′-[…]-3′; reverse, 5′-[…]-3′. […] Proteins were stored in 1× phosphate-buffered saline (pH 7.4) at 10 mg/mL (concentration determined using a BCA assay (Thermo Fisher Scientific)), −80° C. until further use. […]

Which “selective versus Casp6” value does the source give for `Cc1ccc2c(c1)CCN(C(=O)[C@@H](NC(=O)[C@H](CCCC(=O)O)NC(=O)C1Cc3ccccc3N1)C(C)C)[C@@H]2C(=O)N[C@H](C#N)CC(=O)O` (stereo partly drawn) [Compound 1, (8)-6-(((S)-1-((8)-1-(((S)-2-carboxy-1-cyanoethyl)carbamoyl)-6-methyl-3,4-dihydroisoquinolin-2(1H)-yl)-3-methyl-1-oxobutan-2-yl)amino)-5-((S)-indoline-2-carboxamido)-6-oxohexanoic acid] here?
The value was greater than 2000 fold.
